In ChEMBL document CHEMBL1201862, “PubChem BioAssay data set” (2004):
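Grown in 96-well plates, cells were treated for 48 hours with each compound at five concentrations. Insufficient inhibition: endpoint recorded as highest concentration tested. GI50 marks 50% less growth.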 Activity calls are given as the source filed them. No stated cut-off is given here; in the data, active = GI50 up to about 1.1 µM and inactive = higher.

Experiments:
Test in all cases: NCI anticancer screen, dose series, 48 h
[1] = tested on: NCI-H226
[2] = tested on: CCRF-CEM
[3] = tested on: OVCAR-5
[4] = tested on: TK-10
[5] = tested on: SK-MEL-28
[6] = tested on: NCI/ADR-RES
[7] = tested on: MOLT-4
[8] = tested on: T47D
[9] = tested on: BT-549
[10] = tested on: MDA-MB-435
[11] = tested on: SN12C
[12] = tested on: UO-31
[13] = tested on: HOP-62
[14] = tested on: HCC 2998
[15] = tested on: Hs-578T
[16] = tested on: ACHN
[17] = tested on: DU-145
[18] = tested on: COLO 205
[19] = tested on: RXF 393
[20] = tested on: HT-29
[21] = tested on: SNB-19
[22] = tested on: UACC-257
[23] = tested on: IGROV-1
[24] = tested on: RPMI-8226
[25] = tested on: MDA-N
[26] = tested on: K562
[27] = tested on: HOP-92
[28] = tested on: NCI-H522
[29] = tested on: KM12
[30] = tested on: NCI-H460
[31] = tested on: SF-539
[32] = tested on: SF-295
[33] = tested on: HCT-15
[34] = tested on: EKVX
[35] = tested on: UACC-62
[36] = tested on: 786-0
[37] = tested on: SK-MEL-5
[38] = tested on: SNB-75
[39] = tested on: OVCAR-4
[40] = tested on: SF-268
[41] = tested on: OVCAR-3
[42] = tested on: HCT-116
[43] = tested on: PC-3
[44] = tested on: SK-MEL-2
[45] = tested on: SK-OV-3
[46] = tested on: SW-620
[47] = tested on: MDA-MB-231
[48] = tested on: NCI-H23
[49] = tested on: HL-60
[50] = tested on: MCF7
[51] = tested on: A549
[52] = tested on: U-251
[53] = tested on: Malme-3M
[54] = tested on: A498
[55] = tested on: M14
[56] = tested on: OVCAR-8
[57] = tested on: LOX IMVI
[58] = tested on: CAKI-1

CC(C)(Cl)C(Br)CC/C(=C/CBr)CBr.CC(C)(Cl)C(Br)CC/C(=C\CBr)CBr (stereo not drawn)
GI50 [1]: 24.6 µM (inactive)
GI50 [2]: 0.959 µM (active)
GI50 [3]: 13.2 µM (inactive)
GI50 [4]: 4.1 µM (inactive)
GI50 [5]: 3.2 µM (inactive)
GI50 [6]: 2.86 µM (inactive)
GI50 [7]: 1.14 µM (inactive)
GI50 [8]: 4.23 µM (inactive)
GI50 [9]: 2.77 µM (inactive)
GI50 [10]: 1.87 µM (inactive)
GI50 [11]: 2.49 µM (inactive)
GI50 [12]: 1.62 µM (inactive)
GI50 [13]: 5.93 µM (inactive)
GI50 [14]: 5.82 µM (inactive)
GI50 [15]: 4.69 µM (inactive)
GI50 [16]: 3.88 µM (inactive)
GI50 [17]: 8.05 µM (inactive)
GI50 [18]: 2.32 µM (inactive)
GI50 [19]: 4.22 µM (inactive)
GI50 [20]: 1.95 µM (inactive)
GI50 [21]: 4.12 µM (inactive)
GI50 [22]: 4.37 µM (inactive)
GI50 [23]: 2.28 µM (inactive)
GI50 [24]: 1.11 µM (active)
GI50 [25]: 2.62 µM (inactive)
GI50 [26]: 1.71 µM (inactive)
GI50 [27]: 2.03 µM (inactive)
GI50 [28]: 1.68 µM (inactive)
GI50 [29]: 2.36 µM (inactive)
GI50 [30]: 3.61 µM (inactive)
GI50 [31]: 2.47 µM (inactive)
GI50 [32]: 3.71 µM (inactive)
GI50 [33]: 1.95 µM
GI50 [34]: 24.8 µM (inactive)
GI50 [35]: 5.01 µM (inactive)
GI50 [36]: 1.59 µM (inactive)
GI50 [37]: 2.87 µM (inactive)
GI50 [38]: 2.48 µM (inactive)
GI50 [39]: 2.25 µM (inactive)
GI50 [40]: 2.14 µM (inactive)
GI50 [41]: 2.45 µM (inactive)
GI50 [42]: 1.79 µM (inactive)
GI50 [43]: 7.45 µM (inactive)
GI50 [44]: 4.98 µM (inactive)
GI50 [45]: 15 µM (inactive)
GI50 [46]: 2.3 µM (inactive)
GI50 [47]: 1.89 µM (inactive)
GI50 [48]: 2.83 µM (inactive)
GI50 [49]: 0.757 µM (active)
GI50 [50]: 2.84 µM (inactive)
GI50 [51]: 12.5 µM (inactive)
GI50 [52]: 2 µM (inactive)
GI50 [53]: 1.78 µM (inactive)
GI50 [54]: 8.63 µM (inactive)
GI50 [55]: 2 µM (inactive)
GI50 [56]: 3.01 µM (inactive)

Cc1cc(N(C)C)c2ccccc2[n+]1CCCCCCCCCC[n+]1c(C)cc(N(C)C)c2ccccc21.[O-][Cl+3]([O-])([O-])[O-].[O-][Cl+3]([O-])([O-])[O-]
GI50 [1]: 3.33 µM (inactive)
GI50 [2]: 0.577 µM (active)
GI50 [3]: 3.3 µM (inactive)
GI50 [4]: 3.29 µM (inactive)
GI50 [5]: 0.986 µM (active)
GI50 [6]: 13.7 µM (inactive)
GI50 [7]: 0.687 µM (active)
GI50 [8]: 0.428 µM (active)
GI50 [9]: 0.676 µM (active)
GI50 [10]: 0.516 µM (active)
GI50 [11]: 0.251 µM (active)
GI50 [12]: 3.38 µM (inactive)
GI50 [14]: 0.893 µM (active)
GI50 [15]: 1.52 µM (inactive)
GI50 [16]: 1.48 µM (inactive)
GI50 [17]: 1.58 µM (inactive)
GI50 [18]: 0.265 µM (active)
GI50 [19]: 5.27 µM (inactive)
GI50 [20]: 0.429 µM (active)
GI50 [21]: 0.512 µM (active)
GI50 [22]: 0.238 µM (active)
GI50 [23]: 6.05 µM (inactive)
GI50 [24]: 0.128 µM (active)
GI50 [25]: 0.485 µM (active)
GI50 [26]: 0.128 µM (active)
GI50 [27]: 1.64 µM (inactive)
GI50 [28]: 6.1 µM (inactive)
GI50 [29]: 0.282 µM (active)
GI50 [30]: 0.348 µM (active)
GI50 [31]: 0.991 µM (active)
GI50 [57]: 0.871 µM (active)
GI50 [32]: 1.47 µM (inactive)
GI50 [33]: 3.81 µM
GI50 [34]: 1.32 µM (inactive)
GI50 [35]: 0.989 µM (active)
GI50 [36]: 2.59 µM (inactive)
GI50 [37]: 0.165 µM (active)
GI50 [38]: 0.47 µM (active)
GI50 [39]: 1.63 µM (inactive)
GI50 [40]: 0.731 µM (active)
GI50 [41]: 0.486 µM (active)
GI50 [42]: 0.743 µM (active)
GI50 [43]: 0.589 µM (active)
GI50 [44]: 0.962 µM (active)
GI50 [45]: 0.735 µM (active)
GI50 [46]: 1.92 µM (inactive)
GI50 [47]: 0.491 µM (active)
GI50 [48]: 0.202 µM (active)
GI50 [49]: 0.275 µM (active)
GI50 [50]: 0.434 µM (active)
GI50 [51]: 0.587 µM (active)
GI50 [52]: 0.124 µM (active)
GI50 [53]: 11 µM (inactive)
GI50 [58]: 7.5 µM (inactive)
GI50 [54]: 2.07 µM (inactive)
GI50 [55]: 2.33 µM (inactive)
GI50 [56]: 1.07 µM (active)
